Experiments:
[1] = tested on: 5-LO product formation in human M1 macrophages; assay: Determination of LO products in human macrophages; type: cell-based; settings: 10 µM, activated by Staphylococcus aureus for 90 min
Protocol: Figure S4. Human monocyte-derived macrophages were pre-treated with test compounds (10 µM) or vehicle 15 min prior stimulation. Cells were then stimulated with S. aureus for 90 min. Data are expressed as percentage of the mean of the 100% control DMSO of n=3 experiments. […]
Determination of LO products in human macrophages
Human M1 macrophages (2 x 10^6 /mL) were pre-treated with test compounds or vehicle (DMSO, 0.1%) for 15 min. Afterward, 1% Staphylococcus aureus 6850wt-conditioned medium (SACM) was added for 90 minutes at 37 °C in order to induce LO product formation. The reaction was stopped by transferring supernatants (1 mL) into 2 mL ice-cold MeOH. After addition of the deuterated LM standards (200 nM d8-5S-HETE, d4-LTB4, d5-LXA4, d5-RvD2, d4-PGE2 and 10 µM d8-AA; Cayman Chemical/Biomol GmbH, Hamburg, Germany), samples were kept at −20 °C for 60 min and then centrifuged (1,200×g, 4°C, 10 min). Solid-phase C18 cartridges were equilibrated with 6 mL methanol before the addition of 6 mL H2O. Then, 9 mL acidified H2O (pH 3.5, HCl) was added, and the samples were loaded onto the conditioned C18 columns that were subsequently washed with 6 mL H2O, followed by 6 mL n-hexane. The LM were eluted with 6 mL of methyl formate, samples were brought to dryness using an evaporation system (TurboVap LV, Biotage) and immediately […]
resuspended in methanol-water (50:50 vol/vol) for UPLC-MS-MS automated injections. The UPLC-MS-MS system consisted of an Acquity UPLC BEH C18 column (1.7 µm, 2.1 × 50 mm, Waters) and an AcquityTM UPLC (Waters) as well as a QTRAP 5500 mass spectrometer (Sciex, Darmstadt, Germany) equipped with an electrospray ionization source. The QTrap 5500 was operated in negative ionization mode using scheduled multiple reaction monitoring (MRM) coupled with the information-dependent acquisition (IDA) and an enhanced product ion scan (EPI). The scheduled MRM window was 90 s, and each LM parameter was optimized individually. LOX product analysis, using an MRM method with diagnostic ion fragments and identification, was performed as described previously.922 […]
Following incubations of 24 h, cells were collected with a cell scraper and, after centrifugation at 14000 × g for 10 min at 4 °C, the supernatant was collected and stored at −80°C for ELISA analysis 1023.
Male CD-1 mice (25–30 g of weight) were obtained from Charles River (Milan, Italy) and kept in an animal care facility under controlled temperature, humidity, with ad libitum access to water and standard laboratory chow diet. All experimental procedures were carried out according to the international and national law and policies (EU Directive 2010/63/EU for animal experiments, ARRIVE guidelines, and the Basel declaration including the 3R concept)11,1224, 25. […]

[2] = tested on: PGE2 production in IL-1β-stimulated A549 cells; assay: Inhibition of PGE2 production in IL-1β-stimulated A549 cells; type: cell-based, human; settings: A549, IL-1β 10 ng/mL, 5 and 10 μM, 24 h, ELISA
Protocol: Figure 3 (A) A549 cells in conditioned medium (1% FBS and 10 ng/mL IL-1β) were incubated for 24 h with 5 and 10 μM of compound 3, 6, 7, and 9. PGE2 released into the medium was quantified using a specific ELISA. Control cells were stimulated with IL-1β, treated with vehicle (DMSO), and expressed as mean ± SEM (pg/mL), n = 2. (B) A549 cell line was used to perform a MTT assay. A549 were treated with 3, 6, 7, and 9 (test compounds, 10 μM), staurosporine (1 μM, positive control), or vehicle (0.1% DMSO) for 48 h. (C) Human monocytes were used to perform a MTT assay. Cells were treated with 3, 6, 7, and 9 (test compounds, 10 μM), Triton X-100 (1%, positive control), or vehicle (0.5% DMSO) for 24 h. Data are expressed as a percentage of control (100%), means, SEM, n = 3.
Carslbad, CA, USA), in 5% CO2 humid atmosphere. The cells were subcultured every 2 days and were tested for Mycoplasma using PCR analysis.Inhibition of PGE2 production in cells A549 cells were plated at 10.000 cells/well in DMEM with 10% FBS-medium in a 96-well plate; after overnight incubation, the cells were treated with 5 and 10 µM of 3, 6, 7, 9 compounds in DMEM 1%FBS and IL-1β (10 ng/ml) to upregulate PG synthase expression.
After 24 h, the amount of PGE2 released in the supernatant was evaluated by a commercially available enzyme immunoassay kit (Prostaglandin E2 EIA kit Monoclonal, Cayman Chemical), and at the same time was evaluated cell viability by MTT using (3-4,5-[…])-2,5-diphenyl tetrazolium bromide reagent (Sigma-Aldrich). Following the treatment, 20 µL of MTT (5 mg/mL in PBS) was added, and the cells were incubated for additional 3 h at 37°C. […]
The absorbance was measured at 570 nm with a Multiskan™ GO Microplate Spectrophotometer (Thermo Fisher Scientific, USA). […]
MTT (5 mg/mL) was added, and after 1 h (37 °C, 5% CO 2) the medium was replaced with DMSO (100 µL per well). Finally, formazan formation was detected by the measurement of absorbance at […]
Acute cytotoxicity of compounds 3, 6, 7, 9 was analyzed on human monocytes. […]

| Compound | cellular 5-LO product formation in pro-inflammatory macrophages [1] | PGE2 released into the medium [2] |
| --- | --- | --- |
| Nc1ccccc1-c1ccc(-c2nnc(NC(=O)c3c(Cl)ccnc3Cl)s2)cc1 [compound 9] | potent inhibition of cellular 5-LO product formation | able to suppress the biosynthesis of PGE2 in a concentration-dependent manner |
| Cc1cc(C(=O)Nc2nnc(-c3ccc(-c4ccccc4N)cc3)s2)cc(Cl)n1 [compound 6] | potent inhibition of cellular 5-LO product formation | able to suppress the biosynthesis of PGE2 in a concentration-dependent manner |
| Nc1ccccc1-c1ccc(-c2nnc(NC(=O)c3ccccc3Br)s2)cc1 [compound 7] | potent inhibition of cellular 5-LO product formation | able to suppress the biosynthesis of PGE2 in a concentration-dependent manner |
| O=C(Nc1nnc(-c2ccc(-c3cccc(O)c3)cc2)s1)c1ccccc1Br [compound 3] | potent inhibition of cellular 5-LO product formation |  |

— paper PMC9841589, “Identification of 2-Aminoacyl-1,3,4-thiadiazoles as Prostaglandin E2 and Leukotriene Biosynthesis Inhibitors” (ACS Medicinal Chemistry Letters, 2022)
